# Experiments:
# [1] = test system: PD2 mouse ovaries (primordial follicles); experiment: In vitro culture of PD2 mouse ovaries, follicle counting; assay type: cell-based; settings: VCD 1-1000 nM on first day of culture, then 3 days normal medium, compared with control group
# Description: (§1) Neonatal 2-day (PD2) or 12-day (PD12) C57bl/6 mice (provided by Shandong University Experimental Animal Center) were executed by decapitation and the ovaries and surrounding tissues were dissected and separated under a dissecting microscope, and the excised ovaries were placed in Leibovitz's L-15 medium (containing 10% fetal bovine serum+0.5% penicillin+0.5% streptomycin). The adipose tissue was dissected and separated. The separated ovaries were washed three times in PBS.
# (§2) Configure ovarian medium: 1 mg/ml bovine serum albumin (BSA, Cat #A4161-1G, Sigma), 1 mg/ml AbluMAX II Lipid-Rich BSA (Cat #11021029, Gibco), 5% Insulin-Transferrin-Selenium (ITS-G) (Cat #41400-045, Gibco), 0.5% Penicillin+0.5% Streptomycin and 100 nM VCD were added into DMEM/F12 (Cat #11039-021, Gibco) medium. The prepared medium was mixed and added to a six-well plate with 1.5 ml of medium per well. A sieve (Cat #PICMORG50, Millipore) was put on the medium and placed in the incubator to preheat.
# (§3) The separated ovaries were transferred to the ovarian medium with a pipette, washed three times and placed on the upper sieve of the pre-warmed medium. A drop of medium was added around the ovaries in the upper sieve to keep the area around the ovaries moist. The six-well plates were placed in a 37° C., 5% CO2 incubator for four consecutive days, and the lower layer of medium was changed daily. […]
# PI3K-Akt pathway = experiment: Western blot for phosphorylation of proteins associated with follicle activation in the ovary; assay type: cell-based; settings: PD2 mouse ovaries; 10 nM VCD for 2-3 min in vitro
# Method: PD2 mice were dissected in autopsy solution (Leibovitz's L-15 medium, […], Gibco; +10% fetal bovine serum (FBS)) after execution, washed twice in ovarian medium and incubated in ovarian medium. After incubation in medium with or without VCD for 3 min. ovarian tissue was collected and lysed in RIPA lysis solution (Cat #89900, Thermo) for digestion. Proteins were denatured and separated by SDS PAGE and transferred to PVDF membranes (Millipore). The membranes were incubated with primary antibodies followed by incubation with HRP-conjugated secondary antibodies and the bands were examined using an enhanced chemiluminescence detection kit (Bio-Rad).
# (§4) anti-rabbit aromatase (Cat #NBP1-45360, Novus, 1:2000), anti-rabbit phosphor-AKT (Serine 473) (D9E) (Cat #4060, Cell Signaling, 1:500), anti-rabbit phosphor-FoxO1 (Threonine 24)/FoxO3a (Threonine 32) (Cat #9464, Cell Signaling, 1:500), anti-rabbit phosphor-P-S6 (Serine 235/236) (Cat #4858, Cell Signaling, 1:1000), anti-rabbit phosphor-P-S6 (Serine 240/244) (Cat #2215, Cell Signaling, 1:1000), anti-rabbit phosphor-P70S6k (Threonine 389) (Cat #9205, Cell Signaling, 1:1000), anti-rabbit (Cat #7074S, CST) or anti-mouse (Cat #7076S, CST).
# Two-day-old (PD2) mouse ovaries were isolated and cultured in vitro according to the method described in Example 1. […]
# [2] = test system: PD12 mouse ovaries (secondary follicles); experiment: In vitro culture of PD12 mouse ovaries, secondary follicle counting; assay type: cell-based; settings: 4 days with VCD 1-1000 nM, compared to control group
# Description: as §1, §2, §3
# [3] = test system: PD12 C57bl/6 female mice ovaries; experiment: Follicle development in neonatal mice in vivo; design: species or system mouse; settings: 20 or 160 mg/kg intraperitoneal, 5 consecutive days, compared to saline control
# Method: PD12 C57bl/6 mice in the same litter were divided into experimental and control groups according to body weight. The experimental mice were weighed and given either 20 mg/kg or 160 mg/kg of VCD by intraperitoneal injection, while the control mice were given the same volume of saline. After […] of continuous administration, the mice were executed and the ovaries were dissected to separate the adipose tissue under the microscope and fixed in 4% PFA. Dehydrated sections were used to observe and count the development of follicles in the ovaries at different times.
# According to the method described in Example 1, the same litter of PD12 C57bl/6 female mice was divided into experimental and control groups according to body weight and given 20 mg/kg or 160 mg/kg of VCD by intraperitoneal injection, while the control mice were given the same volume of saline. Each group (N=6) was administered for 5 consecutive days, and then the mice were executed and the collected ovaries were stained to observe the morphology as shown in FIG. 3A (yellow arrows indicate early sinus follicles and red arrows indicate sinus follicles).
# [4] = test system: 10-12 month old C57bl/6 ovaries; experiment: Ovulation stimulation experiment in old mice; assay type: in vivo, mouse; settings: 80 mg/kg intraperitoneal, 5 days, then PMSG/hCG
# Method: 10-12 month old C57bl/6 […] were divided into experimental and control groups according to body weight, and the experimental group was weighed and injected intraperitoneally with 80 mg/kg of VCD, while the control group was given the same volume of saline. After 5 days of continuous administration, 5 units of PMSG were injected to the experimental group and the control group, and 10 IU of hCG was injected 48 hours later to induce secondary ovulation. Mice were executed 16 hours after hCG injection, and both oviducts were collected and placed in M2 dissecting solution (Cat #M7167, Sigma), and the oocyte-granulosa cell complexes were seen when cutting the dilated oviducts under a dissecting microscope. The granulosa cell complexes from each mouse were transferred to a droplet of hyaluronidase (Cat #90101, Fujifilm Irvine Scientific) and the number of eggs per mouse was counted under a microscope after the granulosa cells around the oocytes had been digested.
# According to the method described in Example 1, 10-12 month old C57bl/6 […] were divided into experimental and control groups according to their body weight, and the experimental group was weighed and injected intraperitoneally with 80 mg/kg of VCD, while the control group was given the same volume of saline. […]
# aromatase [5] = experiment: Aromatase expression in primary mouse granulosa cells; assay type: cell-based; settings: PD20 primary granulosa cells; VCD 1-1000 nM, 24 h
# Description: as §4
# Granulosa cells were isolated from the ovaries of PD20 mice according to the method described by Reddy P et al, Science 2008, 319(5863):611-613 and Liu Y X et al Biol Reprod 1986, 35(1):27-36, from which primary granulosa cell lines were obtained. They were treated with different concentrations of VCD (0, 1 nM, 10 nM, 100 nM, 1000 nM) for 24 h, using 50 ng/ml FSH as control.
# aromatase [6] = experiment: Aromatase expression in KGN cells; assay type: cell-based, human; settings: VCD 1-1000 nM, 24 h
# Description: as §4
# (§5) Human-derived granulocyte-like cell line KGN (provided by Prof. Toshihiko Yanase, Fukuoka University, Japan) was cultured in DMEM/F12 medium. KGN were treated with different concentrations of VCD (0, 1 nM, 10 nM, 100 nM, 1000 nM) for 24 h, using 50 ng/ml FSH as control.
# KGN cells = experiment: Estradiol (E2) levels in KGN cell culture supernatants (ELISA); assay type: cell-based, human; settings: 24 h, versus control group
# Method: KGN cell supernatants were collected after 24 hours of cell culture for the detection of E2 levels. The procedure of the assay followed the instructions of the E2 Assay Kit (Human Estradiol (E2) ELISA Kit, Cat #KAQ0621, Invitrogen).
# as §5
# [7] = test system: primordial and primary follicles; settings: rodents; prior studies; cited from earlier work
compound,measurement,setting,value
"C1CC2OC2CC1C1CO1 (stereo not shown) [VCD, 4-vinylcyclohexene diepoxide]",number of primordial follicles and early primary follicles,[1],significantly increased
same,"activation of PI3K-Akt pathway (phosphorylation of involved proteins, Western blot)",PI3K-Akt pathway,significantly activate
same,number of secondary follicles,[2],significantly increased
same,follicles close to the preovulatory stage in the ovaries,[3],more follicles close to the preovulatory stage
same,"follicle counts (sinus follicles, corpus luteum) in ovaries",[4],more sinus follicles as well as newly formed corpus luteum
same,MII oocytes ovulated,[4]; versus saline control,more oocytes
same,expression level of aromatase in mouse granulosa cells,aromatase [5],significantly increased
same,expression level of aromatase in KGN,aromatase [6],significantly increased
same,level of estrogen (E2) in cell supernatant,KGN cells,significantly higher
same,ovotoxicity to follicles,[7],induces atretic degeneration of primordial and primary follicles

# Source: patent US12569465B2, “Method for activating follicles by means of using small-molecule compound, and preparation thereof” (TSINGTAO A-SMART MEDICAL TECHNOLOGY CO., LTD., priority 2020, dated 2026)
